Measured values as given in US7332476B2, “Pyridyl substituted ketolide antibiotics” (Novartis AG, priority 2003, dated 2008).
Values after ≈ are worked out from the molar mass of the structure shown.

What was measured:
Experiment in all cases: MIC, broth microdilution (NCCLS)
E. coli Esco_25922 = type: cell-based; conditions: Table 5, Strain ID M (Table 4): E. coli Esco_25922; unit assumed
Method: Strains. The bacterial isolates listed in Table 4 were cultivated from −70° C. frozen stocks by two consecutive overnight passages (P1, P2) at 35° C. on 5% blood agar (Remel, Lenexa, Kans.). Chocolate agar (Remel) is used for Haemophilus influenzae. H. influenzae and Streptococcus pneumoniae are incubated in 5-10% CO2
Drug Stock Preparation. To determine the amount of solvent to be used to give the desired final concentration, the formula “weight obtained in mg/final concentration in mg/ml” will be used. It will give the amount of solvent in ml needed to be added to give the desired concentration. For example, if 2.5 mg/ml is the desired concentration and the weight of compound is 13.7 mg, then the amount of solvent to be added is […]. Methanol is used as the solvent to dissolve the test compounds. Further dilution of stock is done in sterile, deionized water. Drug stocks are kept frozen at −70° C., protected from light.
Susceptibility Testing. MICs are determined by the broth microdilution method in accordance with the NCCLS guidelines. In brief, organism suspensions are adjusted to a 0.5 McFarland standard to yield a final inoculum between 3×10^5 and 7×10^5 CFU/ml. Drug dilutions and inocula are made in sterile, cation adjusted Mueller-Hinton Broth (CAMHB) (Remel) for all but S. pneumoniae [CAMHB with 2-5% lysed horse blood (Remel)] and H. influenzae [Haemophilus Test Medium (Remel)]. An inoculum volume of 100 μl is added to wells containing 100 μl of broth with 2-fold serial dilutions of drug. All inoculated microdilution trays are incubated in ambient air at 35° C. for 18-24 hours, except for S. pneumoniae, and H. influenzae (both at 5-10% CO2).
Following appropriate incubation, the MIC is determined and the MIC is defined as the lowest concentration of the drug that prevented visible growth.

[1] = tested on: Streptococcus pneumoniae Stpn_49619; type: cell-based; conditions: Table 5, Strain ID E (Table 4): S. pneumoniae Stpn_49619
Method in brief: (§1)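 Broth microdilution per NCCLS in cation-adjusted Mueller-Hinton broth, with 2-5% lysed horse blood added for S. pneumoniae. Inoculum 3×10^5–7×10^5 CFU/ml, 2-fold drug dilutions, 18-24 h at 35° C; S. pneumoniae under 5-10% CO2, others ambient air. MIC = lowest concentration preventing visible growth.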

[2] = tested on: Streptococcus pneumoniae Stpn_Mef 5654; type: cell-based; conditions: Table 5, Strain ID J (Table 4): S. pneumoniae Stpn_Mef 5654; in µg/mL (unit assumed)
Method in brief: as §1

[3] = tested on: Streptococcus pneumoniae Stpn_297-749; type: cell-based; conditions: Table 5, Strain ID F (Table 4): S. pneumoniae Stpn_297-749 Pen R
Method in brief: as §1

[4] = tested on: Haemophilus influenzae Hain_49247; type: cell-based; conditions: Table 5, Strain ID L (Table 4): H. influenzae Hain_49247; unit assumed
[5] = tested on: Enterococcus faecalis Enfa_29212; type: cell-based; conditions: Table 5, Strain ID C (Table 4): E. faecalis Enfa_29212
Method in brief: as §1

[6] = tested on: Staphylococcus epidermidis Step_f50654; type: cell-based; conditions: Table 5, Strain ID B (Table 4): S. epidermidis Step_f50654 Pen S; in µg/mL (unit assumed)
Method in brief: as §1

[7] = tested on: Staphylococcus epidermidis Step_14990; type: cell-based; conditions: Table 5, Strain ID A (Table 4): S. epidermidis Step_14990; in µg/mL (unit assumed)
Method in brief: as §1

[8] = tested on: Streptococcus pneumoniae Stpn_Erm S 4297; type: cell-based; conditions: Table 5, Strain ID I (Table 4): S. pneumoniae Stpn_Erm S 4297
Method in brief: as §1

[9] = tested on: Streptococcus pneumoniae Stpn_Mef S 3427; type: cell-based; conditions: Table 5, Strain ID K (Table 4): S. pneumoniae Stpn_Mef S 3427
Method in brief: as §1

[10] = tested on: Streptococcus pneumoniae Stpn_280-962; type: cell-based; conditions: Table 5, Strain ID G (Table 4): S. pneumoniae Stpn_280-962 Pen S
Method in brief: as §1

[11] = tested on: Streptococcus pyogenes Stpy_8668; type: cell-based; conditions: Table 5, Strain ID D (Table 4): S. pyogenes Stpy_8668
Method in brief: as §1

[12] = tested on: S. pneumoniae Stpn_Erm 6849; type: cell-based, Streptococcus pneumoniae; conditions: Table 5, Strain ID H (Table 4): S. pneumoniae Stpn_Erm 6849; unit assumed
Method in brief: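 Lowest drug concentration giving no visible growth after 18-24 hours at 35° C. under 5-10% CO2 was taken as MIC. Twofold serial dilutions in CAMHB plus 2-5% lysed horse blood, final inoculum 3×10^5–7×10^5 CFU/ml, per NCCLS microdilution.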

## CC[C@H]1OC(=O)[C@H](C)C(=O)[C@H](C)[C@@H](OC2O[C@H](C)C[C@H](N(C)C)[C@H]2O)[C@@](C)(OC)C[C@@H](C)C(=O)[C@H](C)[C@@H]2[C@@H]1OC(=O)N2CCCCc1ccnc2ccccc12 (stereo partly shown) [Compound 4711]
E. coli Esco_25922
  MIC: 50 µg/mL (≈ 63.9 µM)
[1]
  MIC: =0.5
[2]
  MIC: 0.1
[3]
  MIC: =0.5
[4]
  MIC: 1.56 µg/mL (≈ 1.99 µM)
[5]
  MIC: =0.05
[6]
  MIC: 0.1
[7]
  MIC: 0.1
[8]; unit assumed
  MIC: 0.2 µg/mL (≈ 0.256 µM)
[9]
  MIC: =0.5
[10]
  MIC: =0.5
[11]
  MIC: =0.5
[12]
  MIC: 6.25 µg/mL (≈ 7.99 µM)

## CC[C@H]1OC(=O)[C@H](C)C(=O)[C@H](C)[C@@H](OC2O[C@H](C)C[C@H](N(C)C)[C@H]2O)[C@@](C)(OC)C[C@@H](C)C(=O)[C@H](C)[C@@H]2[C@@H]1OC(=O)N2CCCCn1cnc2ncccc21 (stereo partly shown) [Compound 4713]
E. coli Esco_25922
  MIC: 50 µg/mL (≈ 64.8 µM)
[1]
  MIC: =0.5
[2]
  MIC: 3.13
[3]
  MIC: =0.5
[4]
  MIC: 3.13 µg/mL (≈ 4.05 µM)
[5]; in µg/mL (unit assumed)
  MIC: 0.1
[6]
  MIC: 0.4
[7]
  MIC: 0.4
[8]; unit assumed
  MIC: 0.1 µg/mL (≈ 0.13 µM)
[9]; in µg/mL (unit assumed)
  MIC: 0.4
[10]
  MIC: =0.5
[11]
  MIC: =0.5
[12]
  MIC: 0.78 µg/mL (≈ 1.01 µM)

## CC[C@H]1OC(=O)[C@H](C)C(=O)[C@H](C)[C@@H](OC2O[C@H](C)C[C@H](N(C)C)[C@H]2O)[C@@](C)(OC)C[C@@H](C)C(=O)[C@H](C)[C@@H]2[C@@H]1OC(=O)N2CCCn1cnc(-c2ccccc2)c1 (stereo partly shown) [Compound 4714]
E. coli Esco_25922
  MIC: > 50 µg/mL
[1]
  MIC: =0.5
[2]
  MIC: 0.4
[3]
  MIC: =0.5
[4]
  MIC: > 50 µg/mL
[5]; in µg/mL (unit assumed)
  MIC: 0.4
[6]
  MIC: 6.25
[7]
  MIC: 6.25
[8]; unit assumed
  MIC: 6.25 µg/mL (≈ 7.98 µM)
[9]; in µg/mL (unit assumed)
  MIC: 0.1
[10]
  MIC: =0.5
[11]; unit assumed
  MIC: 0.1 µg/mL (≈ 0.128 µM)
[12]
  MIC: > 50 µg/mL

## CC[C@H]1OC(=O)[C@H](C)C(=O)[C@H](C)[C@@H](OC2O[C@H](C)C[C@H](N(C)C)[C@H]2O)[C@@](C)(OC)C[C@@H](C)C(=O)[C@H](C)[C@@H]2[C@@H]1OC(=O)N2CCCn1cnc2cccnc21 (stereo partly shown) [Compound 4716]
E. coli Esco_25922
  MIC: > 50 µg/mL
[1]
  MIC: =0.5
[2]
  MIC: 0.78
[3]
  MIC: =0.5
[4]
  MIC: 25 µg/mL (≈ 33 µM)
[5]; in µg/mL (unit assumed)
  MIC: 0.78
[6]
  MIC: 12.5
[7]
  MIC: 6.25
[8]; unit assumed
  MIC: 25 µg/mL (≈ 33 µM)
[9]; in µg/mL (unit assumed)
  MIC: 0.4
[10]
  MIC: =0.5
[11]; unit assumed
  MIC: 0.1 µg/mL (≈ 0.132 µM)
[12]
  MIC: > 50 µg/mL

## CC[C@H]1OC(=O)[C@H](C)C(=O)[C@H](C)[C@@H](OC2O[C@H](C)C[C@H](N(C)C)[C@H]2O)[C@@](C)(OC)C[C@@H](C)C(=O)[C@H](C)[C@@H]2[C@@H]1OC(=O)N2CCCCn1ccc2ccccc21 (stereo partly shown) [Compound 4717]
E. coli Esco_25922
  MIC: > 50 µg/mL
[1]
  MIC: =0.5
[2]
  MIC: 0.2
[3]
  MIC: =0.5
[4]
  MIC: 6.25 µg/mL (≈ 8.12 µM)
[5]; in µg/mL (unit assumed)
  MIC: 0.1
[6]
  MIC: 0.4
[7]
  MIC: 0.2
[8]; unit assumed
  MIC: 0.4 µg/mL (≈ 0.519 µM)
[9]
  MIC: =0.05
[10]
  MIC: =0.5
[11]
  MIC: =0.5
[12]
  MIC: 6.25 µg/mL (≈ 8.12 µM)

## CC[C@H]1OC(=O)[C@H](C)C(=O)[C@H](C)[C@@H](OC2O[C@H](C)C[C@H](N(C)C)[C@H]2O)[C@@](C)(OC)C[C@@H](C)C(=O)[C@H](C)[C@@H]2[C@@H]1OC(=O)N2CCCCc1ccc2ccccc2n1 (stereo partly shown) [Compound 5960]
E. coli Esco_25922
  MIC: 25 µg/mL (≈ 32 µM)
[1]
  MIC: =0.05
[2]
  MIC: 0.2
[3]
  MIC: =0.05
[4]
  MIC: 3.13 µg/mL (≈ 4 µM)
[5]
  MIC: =0.05
[6]
  MIC: 0.2
[7]
  MIC: 0.2
[8]; unit assumed
  MIC: 0.1 µg/mL (≈ 0.128 µM)
[9]
  MIC: =0.05
[10]
  MIC: =0.05
[11]
  MIC: =0.05
[12]
  MIC: 25 µg/mL (≈ 32 µM)

## CC[C@H]1OC(=O)[C@H](C)C(=O)[C@H](C)[C@@H](OC2O[C@H](C)C[C@H](N(C)C)[C@H]2O)[C@@](C)(OC)C[C@@H](C)C(=O)[C@H](C)[C@@H]2[C@@H]1OC(=O)N2CCCCc1ccnc2ccccc12 (stereo partly shown) [Compound 6220]
E. coli Esco_25922
  MIC: 6.25 µg/mL (≈ 7.99 µM)
[1]
  MIC: =0.05
[2]
  MIC: 0.4
[3]
  MIC: =0.05
[4]
  MIC: 1.56 µg/mL (≈ 1.99 µM)
[5]
  MIC: =0.05
[6]
  MIC: 0.1
[7]
  MIC: 0.1
[8]; unit assumed
  MIC: 0.1 µg/mL (≈ 0.128 µM)
[9]
  MIC: =0.5
[10]
  MIC: =0.05
[11]
  MIC: =0.05
[12]
  MIC: 3.13 µg/mL (≈ 4 µM)

## CC[C@H]1OC(=O)[C@H](C)C(=O)[C@H](C)[C@@H](OC2O[C@H](C)C[C@H](N(C)C)[C@H]2O)[C@@](C)(OC)C[C@@H](C)C(=O)[C@H](C)[C@@H]2[C@@H]1OC(=O)N2CCCCn1cnc(-c2ccccc2)c1 (stereo partly shown) [Compound 6221]
E. coli Esco_25922
  MIC: 25 µg/mL (≈ 31.4 µM)
[1]
  MIC: =0.05
[2]
  MIC: 0.4
[3]
  MIC: =0.05
[4]
  MIC: 3.13 µg/mL (≈ 3.93 µM)
[5]
  MIC: =0.05
[6]
  MIC: 0.1
[7]
  MIC: 0.1
[8]
  MIC: =0.05
[9]
  MIC: =0.05
[10]
  MIC: =0.05
[11]
  MIC: =0.05
[12]
  MIC: 0.1 µg/mL (≈ 0.125 µM)

## CC[C@H]1OC(=O)[C@H](C)C(=O)[C@H](C)[C@@H](OC2O[C@H](C)C[C@H](N(C)C)[C@H]2O)[C@@](C)(OC)C[C@@H](C)C2=NCCN3C(=O)O[C@H]1[C@H]3[C@H]2C (stereo partly shown) [Compound 6222]
E. coli Esco_25922
  MIC: 50 µg/mL (≈ 80.2 µM)
[1]; unit assumed
  MIC: 0.2 µg/mL (≈ 0.321 µM)
[2]
  MIC: 0.78
[3]; unit assumed
  MIC: 0.4 µg/mL (≈ 0.641 µM)
[4]
  MIC: 25 µg/mL (≈ 40.1 µM)
[5]; in µg/mL (unit assumed)
  MIC: 0.4
[6]
  MIC: 1.56
[7]
  MIC: 1.56
[8]; unit assumed
  MIC: > 50 µg/mL
[9]; in µg/mL (unit assumed)
  MIC: 0.4
[10]; unit assumed
  MIC: 0.2 µg/mL (≈ 0.321 µM)
[11]; unit assumed
  MIC: 0.2 µg/mL (≈ 0.321 µM)
[12]
  MIC: > 50 µg/mL

## CC[C@H]1OC(=O)[C@H](C)C(=O)[C@H](C)[C@@H](OC2O[C@H](C)C[C@H](N(C)C)[C@H]2O)[C@@](C)(OC)C[C@@H](C)C2=N[C@@H](C)CN3C(=O)O[C@H]1[C@H]3[C@H]2C (stereo partly shown) [Compound 6223]
E. coli Esco_25922
  MIC: 50 µg/mL (≈ 78.4 µM)
[1]; unit assumed
  MIC: 0.2 µg/mL (≈ 0.314 µM)
[2]
  MIC: 0.78
[3]; unit assumed
  MIC: 0.2 µg/mL (≈ 0.314 µM)
[4]
  MIC: > 50 µg/mL
[5]; in µg/mL (unit assumed)
  MIC: 0.78
[6]
  MIC: 3.13
[7]
  MIC: 1.56
[8]; unit assumed
  MIC: > 50 µg/mL
[9]; in µg/mL (unit assumed)
  MIC: 0.4
[10]; unit assumed
  MIC: 0.2 µg/mL (≈ 0.314 µM)
[11]; unit assumed
  MIC: 0.2 µg/mL (≈ 0.314 µM)
[12]
  MIC: > 50 µg/mL
